Source: patent US5840732A, “Imidazopyridine or imidazopyrimidine compounds, their production and use” (Takeda Chemical Industries Ltd., priority 1994, dated 1998)
pIC50: −log10 of the molar value.

Columns and labels:
[1] = system: ICAM-1 expression in human umbilical cord vascular endothelial cells; experiment: Inhibitory activity of adhesion molecule expression (ICAM-1, cell-ELISA); type: cell-based; conditions: TNFα 1 ng/ml, 37° C., 5 hours
Procedure: (§1) Inhibitory activity of adhesion molecule expression
(§2) Test method: To human umbilical cord vascular endothelial cells (purchased from Kurabo), cultured on gelatin-coated plates, compounds at various concentrations (test compounds) were added, followed by incubation at 37° C. for 15 minutes. Human tumor necrosis factor (TNFα, purchased from Genzyme) was then added to a final concentration of 1 ng/ml, followed by incubation at 37° C. for 3 hours for ELAM-1 expression or for 5 hours for ICAM-1 expression. After the reaction, cells were fixed with glutaraldehyde; the amounts of ELAM-1 and ICAM-1 expressed were determined by cell-ELISA. Anti-ELAM-1 antibody BBA-2 and an anti-ICAM-1 antibody BBA-4 were used as the first antibodies for the defection of ELAM-1 and ICAM-1, respectively, and horse radish peroxidase-labeled rabbit anti-mouse IgG antibody was used as the second antibody to determine the amount of adhesion molecules expressed on cells observed. The compound concentration at which 50% expression was expressed as the 50% inhibitory concentration (IC50), with the amount of expression in the absence of compounds as 100 and the amount of expression in the absence of TNFα as 0.

[2] = system: Wistar fatty rats (rat model of hereditary obese diabetes mellitus); experiment: Diabetic nephritis improving action in Wistar fatty rats; type: in vivo, rat (male Wistar fatty); conditions: 50 mg/kg/day oral, 12 weeks, n=6, mean ± standard deviation; for Urinary Albumin: control 35.69 ± 15.44 (for 2), 24.53 ± 7.19 (for 3); for Urinary Total Protein: control 145.19 ± 34.99 (for 2), 131.53 ± 22.81 (for 3), both p < 0.05 vs control; for Plasma Glucose: control 352.00 ± 36.09 (for 2), 368.83 ± 24.35 (for 3), 3: p < 0.05 vs control
Procedure: Diabetic nephritis improving action in Wistar fatty rats (rat model of hereditary obese diabetes mellitus)
Test method: Male Wistar fatty rats at 9 weeks of age were divided into two groups according to plasma glucose level, urinary total protein excretion and body weight: a control group and a test compound group (n=6). The test compound, in suspension in 0.5% methyl cellulose (Wako Pure Chemical) at 2 ml/kg, was orally administered by gavage once a day for 12 consecutive weeks. For the control group, only the 0.5% methyl cellulose suspension was orally administered in the same manner as the test compounds. At every 3 weeks, plasma glucose, urinary total protein and albumin excretion were quantitated by the enzyme method, the Lowry method (Journal of Biological Chemistry, Vol. 193, pp. 265-275 (1951)] and the method of Mohamed et al. [Journal of Immunology Methods, Vol. 74, pp. 17-22 (1984)], respectively.

[3] = system: ELAM-1 expression in human umbilical cord vascular endothelial cells; experiment: Inhibitory activity of adhesion molecule expression (ELAM-1, cell-ELISA); type: cell-based; conditions: TNFα 1 ng/ml, 37° C., 3 hours
Procedure: as §1, §2

[4] = system: mouse skin allograft; experiment: Immunosuppressive action on mouse skin allograft; type: in vivo, mouse (BIOBR donors, C57BL/10 recipients); conditions: 16 days
Procedure: Immunosuppressive action on mouse skin allograft
Test method: Male BIOBR mice and C57BL/10 mice, both at 6 weeks of age, were used as donors and recipients, respectively, and Grafts were prepared by killing donors by cervical vertebral dislocation, collecting full-thickness skin grafts from tail using a razor and tweezers, and cutting them into about 5 mm square pieces. Each graft was kept standing on gauze soaked with physiological saline, and used as soon as the recipient was prepared. Transplantation beds were prepared as follows. The recipient's back was clipped using clippers and sterilized with Isodine. Under ether anesthesia, back skin was picked up with tweezers, and a full-thickness skin graft was cut out into an about 5 mm square piece using scissors. The graft was transferred to the transplantation bed thus prepared, and fixed firmly using bandage. At 7 days after surgery, the bandage was removed, and the mice were observed every day to determine the day of complete necrosis of the graft as the rejection day. The compound was intraperitoneally administered in suspension in 5% gum arabic for 16 days after surgery.

Row | SMILES | pIC50 [1] | pIC50 [3] | also measured
1 | O=C1SC(=CCCCCc2ccccc2)C(=O)N1CCCCSc1cccc2nccn12 [compound 65] | 5.28 | 5.30 | 
2 | CCCC=C1SC(=O)N(CCC2(CCSc3cccc4nccn34)CCCC2)C1=O [compound 55] | 5.26 | 5.14 | 
3 | CCCCCCCCCC=C1SC(=O)N(CCCCOc2cccn3ccnc23)C1=O [compound 72] | 5.25 | 5.19 | 
4 | CCCC=C1SC(=O)N(CCCCSc2cccc3ncc(Br)n23)C1=O [compound 50] | 5.16 | 5.33 | 
5 | CN(C)Cc1cnc2cccc(SCCCCn3c(=O)c(-c4ccccc4)c4n(c3=O)CCCS4(=O)=O)n12 [compound 56] | 5.24 | 5.41 | 
6 | CCC/C=C1/OC(=O)N(CCCCOc2cccn3c(C(=O)C(F)(F)F)cnc23)C1=O [compound 77] | 5.22 | 5.20 | 
7 | CCCC=C1SC(=O)N(CCC(C)(C)CCSc2cccc3nccn23)C1=O [compound 54] | 5.30 | 5.21 | 
8 | CCCC=C1SC(=O)N(CCCCSc2cccc3nc(C)cn23)C1=O [compound 23] | 5.15 | 5.44 | 
9 | O=C(NCCCn1c(=O)c(-c2ccccc2)c2n(c1=O)CCCS2(=O)=O)OCCc1cccc2nccn12 [compound 53] | 5.20 | 5.21 | 
10 | CCCCCCCCCC=C1SC(=O)N(CCCCSc2cccc3nccn23)C1=O [compound 6] | 5.20 | 5.14 | 
11 | CCCC=C1SC(=O)N(CCCCOc2cccn3c(C(=O)C(F)(F)F)cnc23)C1=O [compound 34] | 5.21 | 5.28 | 
12 | CCCCCCC=C1SC(=O)N(CCCCSc2cccc3nccn23)C1=O [compound 57] | 5.15 | 5.10 | 
13 | CCCCCC=C1SC(=O)N(CCCCOc2cccn3ccnc23)C1=O [compound 70] | 5.16 | 5.28 | 

Further lines, with some results ahead:

Row | pIC50 [1] | pIC50 [3] | SMILES | also measured
14 | 5.52 | 5.54 | CCCC=C1SC(=O)N(CCCCSc2cccc3nccn23)C1=O [compound 2] | Urinary Albumin [2]: 20.49 ± 6.95 mg/day; Urinary Total Protein [2]: 96.64 ± 18.31 mg/day; Plasma Glucose [2]: 333.67 ± 46.41 mg/dL
15 | 5.38 | 5.30 | CCCC=C1SC(=O)N(CCCCCc2cccc3nccn23)C1=O [compound 3] | Urinary Albumin [2]: 22.34 ± 7.24 mg/day; Urinary Total Protein [2]: 97.61 ± 16.26 mg/day; Plasma Glucose [2]: 253.17 ± 34.14 mg/dL
16 | 5.96 | 6.10 | O=c1c(-c2ccccc2)c2n(c(=O)n1CCCCSc1cccc3nccn13)CCCS2(=O)=O [compound 24] | Mean Rejection Day ([4]; 10 mg/kg/day intraperitoneal, control 13.5): 27.0 days
17 | 5.34 | 5.54 | CCCC=C1SC(=O)N(CCCCOc2cccn3ccnc23)C1=O [compound 22] | Mean Rejection Day ([4]; 50 mg/kg/day intraperitoneal, control 13.0): 18.8 days
18 | 5.51 | 5.64 | CCCC=C1SC(=O)N(CCCCc2cccc3nccn23)C1=O [compound 7] | 
19 | 5.62 | 5.59 | CCCC=C1OC(=O)N(CCCCSc2cccc3nccn23)C1=O [compound 9] | 
20 | 5.30 | 5.49 | CCC=C1SC(=O)N(CCCCOc2cccn3ccnc23)C1=O [compound 68] | 
21 | 5.36 | 5.42 | CCCC=C1SC(=O)N(CCCCOc2cccc3nccn23)C1=O [compound 8] | 
22 | 5.34 | 5.47 | CCCC=C1SC(=O)N(CCCCSc2cccc3ncc(C(=O)C(F)(F)F)n23)C1=O [compound 35] | 
23 | 5.44 | 5.37 | O=C1SC(=CCCc2ccc(F)cc2)C(=O)N1CCCCSc1cccc2nccn12 [compound 82] | 
24 | 6.05 | 6.30 | O=c1c(Cc2ccccc2)c2n(c(=O)n1CCCCSc1cccc3nccn13)CCCS2(=O)=O [compound 41] | 
25 | 5.41 | 5.52 | O=C1SC(=CCCc2ccccc2)C(=O)N1CCCCSc1cccc2nccn12 [compound 19] | 
26 | 5.31 | 5.36 | CCCC=C1SC(=O)N(CCCc2cccc3nccn23)C1=O [compound 12] | 
27 | 5.41 | 5.37 | O=C1SC(=CCCc2ccc(Cl)cc2)C(=O)N1CCCCSc1cccc2nccn12 [compound 85] | 
28 | 5.41 | 5.47 | O=C1SC(=CCCc2ccccc2)C(=O)N1CCCCOc1cccn2ccnc12 [compound 67] | 
29 | 5.39 | 5.34 | COc1ccc(CCC=C2SC(=O)N(CCCCSc3cccc4nccn34)C2=O)cc1 [compound 80] | 
